Here are results for five compounds from article PMC3853768 (Molecular Pain, 2013).

Values joined by “and” are separate entries in the source; they are usually repeats but may differ in a detail not shown here. Identical values can stand only once. “Also recorded” adds a separate entry of the source. Positions of bridges follow the written chain, without caps; N, C: chain ends. Residues, ends and D or L forms follow the SMILES beside them.

Data set [1] concerns CFA-injected mice (C57 Bl6). Conditions: mouse, in vivo.
Data set [2] deals with N-type calcium channels with auxiliary subunits. Conditions: cited from earlier work.
In data set [3] the test system is patients. Conditions: in vivo; cited from earlier work.
Data set [4] relates to L-type. It is filed as cell-based, mouse.
The test system of data set [5] is P/Q-type channels (Cav2.1). It is filed as cell-based, mouse.

For `CSCC[C@@H]1NC(=O)[C@H](CC(C)C)NC(=O)[C@H](CCCCN)NC(=O)[C@H](CO)NC(=O)[C@@H]2CSSC[C@@H]3NC(=O)[C@H](CO)NC(=O)CNC(=O)[C@H](CO)NC(=O)[C@H](CSSC[C@H](N)C(=O)N[C@@H](CCCCN)C(=O)N[C@@H](CO)C(=O)N[C@@H](CCCCN)C(=O)NCC(=O)N[C@@H](C)C(=O)N[C@@H](CCCCN)C(=O)N2)NC(=O)[C@H](CSSC[C@@H](C(N)=O)NC(=O)[C@H](CCCNC(=N)N)NC(=O)CNC(=O)[C@H](C(C)C)NC(=O)[C@H]([C@@H](C)O)NC(=O)CNC(=O)[C@H](CO)NC3=O)NC(=O)[C@H](CC(=O)O)NC(=O)[C@H](Cc2ccc(O)cc2)NC1=O` [CVID] (H-CKSKGAKCSKLMYDCCSGSCSGTVGRC-NH2; disulfide 1-16, 8-20, 15-27), the “reversal of CFA-induced incapacitance (impaired weight bearing)” value (“reversal of CFA-induced incapacitance” below) in data set [1] is reported as “partially reversed impaired weight bearing; also recorded: most effective at reversing mechanical alldoynia; also recorded: most effective at reversal of pain; also recorded: reverse signs of inflammatory pain”. Further, in data set [2], the “affinity for N-type calcium channels in presence of α2δ subunits” value is reported as “significantly reduces the affinity” and the “recovery from block in presence of α2δ subunits” value is recorded as “decreasing recovery from CVID block”. Besides, the “side-effect profile of irreversible ω-conotoxins” value in data set [3] is listed as “high side-effect profile”.

Turning to `C[C@@H]1NC(=O)CNC(=O)[C@H](CCCCN)NC(=O)CNC(=O)[C@H](CCCCN)NC(=O)[C@@H](N)CSSC[C@@H]2NC(=O)[C@@H]3CSSC[C@@H](C(N)=O)NC(=O)[C@H](CCCNC(=N)N)NC(=O)CNC(=O)[C@H](CO)NC(=O)[C@H](CCCNC(=N)N)NC(=O)[C@H](CSSC[C@H](NC(=O)[C@H](CO)NC1=O)C(=O)N[C@@H](CCCNC(=N)N)C(=O)N[C@@H](CCCNC(=N)N)C(=O)N[C@@H]([C@@H](C)O)C(=O)N[C@@H](CO)C(=O)N[C@@H](Cc1ccc(O)cc1)C(=O)N[C@@H](CC(=O)O)C(=O)N3)NC(=O)[C@H](CO)NC(=O)CNC(=O)[C@H]([C@@H](C)O)NC2=O` [CVIE], the “reversal of CFA-induced incapacitance” value in data set [1] was “partially reversed impaired weight bearing; also recorded: most effective at reversing mechanical alldoynia; also recorded: significant reversal of incapacitance; also recorded: most effective at reversal of pain; also recorded: reverse signs of inflammatory pain”.

On to `CC(C)C[C@@H]1NC(=O)[C@H](CCCNC(=N)N)NC(=O)[C@@H]2CSSC[C@@H]3NC(=O)[C@H](CO)NC(=O)[C@H](C)NC(=O)CNC(=O)[C@H](CCCCN)NC(=O)CNC(=O)[C@H](CCCCN)NC(=O)[C@@H](N)CSSC[C@H](NC(=O)[C@H](CSSC[C@@H](C(N)=O)NC(=O)[C@H](CCCNC(=N)N)NC(=O)CNC1=O)NC(=O)[C@H](CC(=O)O)NC(=O)[C@H](Cc1ccc(O)cc1)NC(=O)[C@H](CO)NC(=O)[C@H]([C@@H](C)O)NC(=O)[C@H](CCCNC(=N)N)NC(=O)[C@H](CCCNC(=N)N)NC3=O)C(=O)N[C@@H]([C@@H](C)O)C(=O)NCC(=O)N[C@@H](CO)C(=O)N2` [CVIF] (H-CKGKGASCRRTSYDCCTGSCRLGRC-NH2; disulfide 1-16, 8-20, 15-25), for which the “reversal of CFA-induced incapacitance” value in data set [1] is reported as “did not produce significant reversal of incapacitance”.

For `COCCOC(=O)C1=C(C)NC(C)=C(C(=O)OC(C)C)C1c1cccc([N+](=O)[O-])c1` (centres unmarked) [nimodipine], the “inhibition of total ICa (L-type contribution)” value in data set [4] was 5% and 4%.

With ω-agatoxin IVA, the “inhibition of total ICa (P/Q-type contribution)” value in data set [5] is “approximately 30%”.
